# Test results from patent US20040097576A1, “Use of tryptophan derivatives for the specific cytostatic treatment of serotonin-producing tumors” (priority 2001, published 2004).
# What was measured:
# [1] = test system: serotonin-producing cells NG108; assay: Toxicity of 7-HTP on serotonin-producing cells NG108 (FIG. 2); assay type: cell-based
# Description: (§1) FIG. 2. […] In contrast, the growth of COS7-cells that produce no serotonin is not affected by 7-HTP.
# [2] = test system: tryptophan-hydroxylase (TPH) and aromatic-amino acid-decarboxylase (AAAD); assay: Intracellular enzymatic metabolisation by TPH and AAAD; assay type: in vitro ADME; details: 7-HTP to 5,7-DHT, 6-HTP to 5,6-DHT
# Description: The invention is put into practice according to the claims. […] These two enzymes, TPH and AAAD, are expressed extraordinarily strong in serotonin-producing tumor cells. Due to the unequally higher TPH-expression in these tumor cells in comparison with normal serotonin-producing tissues, only marginally toxic effects occur in these tissues.
# FIG. 1. Reaction scheme of enzymatic metabolisation of 7-hydroxytryptophan (7-HTP) to 5,7-dihydroxytryptamine (5,7-DHT). The rate-limiting first step is mediated by the enzyme tryptophan-hydroxylase (TPH) and is followed by a rapid decarboxylation by the aromatic-amino acid-decarboxylase (AAAD).
# [3] = test system: serotonin-producing mastocytoma cells P815; assay: Toxicity of 7-HTP on mastocytoma cells P815 (FIG. 3); assay type: cell-based
# [4] = test system: serotonin-producing human carcinoid cells BON; assay: Toxicity of 7-HTP on human carcinoid cells BON (FIG. 4); assay type: cell-based
# COS7-cells = assay: Growth of COS7-cells that produce no serotonin (FIG. 2); assay type: cell-based
# Description: as §1
Structure (SMILES),"protection of 7-HTP-sensitive NG108-cells against 7-HTP toxicity ([1]; NG108 cells treated with 7-HTP plus TPH-inhibitor, no 5,7-DHT synthesised intracellularly)","toxicity on the serotonin-producing cells NG108 ([1]; NG108 cells, FIG. 2)",intracellular metabolisation to dihydroxytryptamine toxin [2],toxicity on the serotonin-producing mastocytoma cells P815 [3],toxicity on the serotonin-producing human carcinoid cells BON [4],growth of COS7-cells (COS7-cells)
"N[C@@H](Cc1ccc(Cl)cc1)C(=O)O [PCPA, p-chlorophenylalanin, reference compound]",can be protected,–,–,–,–,–
"N[C@@H](Cc1c[nH]c2c(O)cccc12)C(=O)O [7-HTP, 7-hydroxytryptophan]",–,Specific toxicity,metabolised intracellularly,rapidly and specifically killed,rapidly and specifically killed,not affected
"N[C@@H](Cc1c[nH]c2cc(O)ccc12)C(=O)O [6-HTP, 6-hydroxytryptophan]",–,–,metabolised intracellularly,–,–,–
